Reference: patent US20220265685A1, “METHODS AND COMPOSITIONS FOR IMPROVING COGNITIVE FUNCTION” (priority 2010, published 2022)
Like-named read-outs stand apart in the source and are kept apart here.

Columns and labels:
[1] = target: synaptic vesicle protein 2A (SV2A) (Homo sapiens, UniProt Q7L0J3); conditions: Noyer et al. 1995; Fuks et al. 2003; Lynch et al. 2004; Gillard et al. 2006; cited from earlier work
aMCI subjects [2] = assay: fMRI activity of medial temporal lobe subregions during the explicit 3-alternative forced choice task; assay type: in vivo, human; conditions: levetiracetam 125 mg twice a day for two weeks vs placebo
Experimental: (§1) A within-subjects trial of 8 weeks duration, involving 17 amnestic MCI (aMCI) subjects and 17 age-matched controls with a low dose treatment of levetiracetam is conducted. During the course of the study, each aMCI subject receives both drug and placebo treatments separately in two periods of two weeks each, with the order of treatments among different aMCI subjects counterbalanced (see FIG. 3). Age-matched control subjects treated with placebo serve as a further control. Cognitive testing and fMRI imaging data are obtained from the subjects after each two week period of drug/placebo treatment.
(§2) As described above, the drug treatment period is the two weeks preceding Visit 1 or 2 (with the two week period preceding the other Visit being the placebo phase). For the subjects receiving the drug treatment, half a scored 250 mg tablet of levetiracetam is used to achieve a dose of […], which is approximately 3.6 mg/kg/day (assuming an average adult human weight of 70 kg).
Imaging data are obtained through high-resolution methods developed in the Stark laboratory. […]
Group data are analyzed using a two-way Analysis of Variance (ANOVA) with trial types and group as fixed factors, and subject as a random factor nested within group. […]

aMCI subjects [3] = assay: neuropsychological assessment (common cognitive tests); assay type: in vivo, human; conditions: levetiracetam 125 mg twice a day for two weeks
Experimental: as §1
All participants undergo neuropsychological evaluation at the time of assessment for treatment efficacy (Visits 1 and 2), as well as at the Baseline Visit.
The evaluation occurs outside of the scanner and includes the Buschke Selective Reminding Test (Buschke and Fuld, 1974) and the Verbal Paired Associates subtest, the Logical Memory subtest, the Visual Reproduction subtest of the Wechsler Memory Scale-Revised (WMS-R) (Wechsler, 1997), and the Benton Visual Retention Test, as these tasks are particularly sensitive to medial temporal lobe function and early memory problems (Marquis et al., 2002 and Masur et al., 1994). Additionally, subjects are asked to complete tests of more general cognitive function such as tests to assess general mental status, executive function, attention and general naming ability. All neuropsychological tests are administered by a trained research assistant during a 60-minute session. As the three neuropsychological assessments in this study occur within a time period of 8 weeks, different versions of the neuropsychological tests are used to minimize test specific practice effects. Breaks are provided to the subject as needed.
as §2

[4] = cited from earlier work
aged-impaired (AI) rats = assay: Radial Arm Maze (RAM) task, spatial memory retention of aged-impaired rats; assay type: in vivo, Long-Evans rats
Experimental: FIG. 1 depicts the effects of administering levetiracetam on the spatial memory retention of ten aged-impaired rats (AI) in an eight-arm Radial Arm Maze (RAM) test. Six treatment conditions are employed: vehicle control, levetiracetam (1.25 mg/kg/day), levetiracetam (2.5 mg/kg/day), levetiracetam (5 mg/kg/day), levetiracetam (10 mg/kg/day) and levetiracetam (20 mg/kg/day). In the RAM task used, there is a one-hour delay between presentation of a subset of arms (5 arms available and 3 arms blocked) and completion of the eight-arm win-shift task (eight arms available). Rats are pre-treated 30-40 minutes before daily trials with a one-time drug/control treatment. The number of errors made by the rats during the retention phase is used as a measure of spatial memory retention. Errors are defined as instances when rats enter an arm from which food has already been retrieved in the pre-delay component of the trial or when rats re-visit an arm in the post-delay session that had already been visited. Paired t-tests are used to compare the number of errors between different doses of levetiracetam and vehicle control.
FIG. 2 depicts the effects of administering donepezil only and administering a combination of donepezil and levetiracetam on the spatial memory retention of eight aged-impaired rats (AI) in an eight-arm Radial Arm Maze (RAM) test. Four treatment conditions are employed: vehicle control, donepezil only (1 mg/kg/day), donepezil (2 mg/kg/day), and a combination of donepezil (1 mg/kg/day) and levetiracetam (2.5 mg/kg/day). In the RAM task used, there is a two-hour delay between presentation of a subset of arms (5 arms available and 3 arms blocked) and completion of the eight-arm win-shift task (eight arms available). Rats are pre-treated 30-40 minutes before daily trials with a one-time drug/control treatment. The number of errors made by the rats during the retention phase is used as a measure of spatial memory retention. Errors are defined as instances when rats enter an arm from which food has already been retrieved in the pre-delay component of the trial or when rats re-visit an arm in the post-delay session that have already been visited. Paired t-tests are used to compare the number of errors between different doses of drug treatment and vehicle control.
Aged, male Long-Evans rats were obtained at 8 to 9 months of age from Charles River Laboratories (Raleigh, N.C.) and housed in a vivarium until 24 to 26 months of age. All rats were individually housed at 25° C. and maintained on a 12 h light/dark cycle. Food and water were provided ad libitum unless noted otherwise. The rats were examined for health and pathogen-free status throughout the experiments, as well as necropsies at the time of killing.
All rats were screened in a standardized assessment of spatial cognition. This background assessment used the above-described well-established MWM protocol. […] The selected AI rats were tested for their memory of new spatial information in a Radial Arm Maze (RAM) task, under different drug/control treatment conditions: vehicle control, donepezil only, levetiracetam only, and a combination of donepezil and levetiracetam. The RAM task also extended the behavioral assessment to spatial memory using appetitive motivation. We used a protocol that allowed within-subject assessment across drugs at different doses and in combinations (Koh et al., Neuropsychopharmacology, epub. 1-10, (2009)).
The radial maze consisted of eight arms projecting from each side of an octagonal center platform, with food well located at the distal end of each arm. Plexiglasm blocks could be positioned to prevent entry into any arm. Extra-maze cues were provided in the room surrounding the maze and illumination was provided by an overhead light.

aMCI subjects [5] = assay: explicit 3-alternative forced choice task (lure stimuli), performance; assay type: in vivo, human; conditions: levetiracetam 125 mg twice a day for two weeks vs placebo, p=0.039
Text: There are various tests known in the art for assessing cognitive function in humans, for example and without limitation, the clinical global impression of change scale (CIBIC-plus scale); the Mini Mental State Exam (MMSE); the Neuropsychiatric Inventory (NPI); the Clinical Dementia Rating Scale (CDR); the Cambridge Neuropsychological Test Automated Battery (CANTAB); the Sandoz Clinical Assessment-Geriatric (SCAG), the Buschke Selective Reminding Test (Buschke and Fuld, 1974); the Verbal Paired Associates subtest; the Logical Memory subtest; the Visual Reproduction subtest of the Wechsler Memory Scale-Revised (WMS-R) (Wechsler, 1997); or the Benton Visual Retention Test. […]
as §2
The activity of the subject's medial temporal lobe is measured by functional MRI during the subject's participation in an explicit 3-alternative forced choice task, where participants view novel, repeated and similar (“lure”) stimuli. […]

synaptic vesicle protein 2A (SV2A), sequence (Q7L0J3 whole entry, species assumed): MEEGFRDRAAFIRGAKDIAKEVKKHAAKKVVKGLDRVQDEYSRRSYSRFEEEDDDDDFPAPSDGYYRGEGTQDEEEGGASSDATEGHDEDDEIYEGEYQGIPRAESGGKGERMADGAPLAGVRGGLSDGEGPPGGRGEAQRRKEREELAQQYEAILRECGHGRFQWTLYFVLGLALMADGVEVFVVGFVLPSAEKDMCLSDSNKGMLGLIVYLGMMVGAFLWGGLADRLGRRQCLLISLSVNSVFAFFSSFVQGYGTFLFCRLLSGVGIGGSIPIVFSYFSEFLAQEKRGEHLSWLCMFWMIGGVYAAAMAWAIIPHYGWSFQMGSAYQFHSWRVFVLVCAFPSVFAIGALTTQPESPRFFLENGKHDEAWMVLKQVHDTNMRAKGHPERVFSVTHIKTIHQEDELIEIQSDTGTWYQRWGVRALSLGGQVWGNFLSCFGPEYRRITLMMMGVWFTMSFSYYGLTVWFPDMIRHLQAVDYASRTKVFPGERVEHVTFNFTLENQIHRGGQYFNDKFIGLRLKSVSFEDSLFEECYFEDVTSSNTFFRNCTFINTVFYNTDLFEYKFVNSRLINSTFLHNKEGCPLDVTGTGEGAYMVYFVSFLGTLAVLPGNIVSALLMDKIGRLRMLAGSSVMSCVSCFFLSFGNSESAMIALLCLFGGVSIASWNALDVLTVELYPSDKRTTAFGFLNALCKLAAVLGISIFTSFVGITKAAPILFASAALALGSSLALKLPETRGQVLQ

## CC[C@@H](C(N)=O)N1CCCC1=O [levetiracetam, (2S)-2-(2-oxopyrrolidin-1-yl) butanamide]
[1]
  binding to SV2A: binds to a specific site in the CNS: the synaptic vesicle protein 2A (SV2A)
aMCI subjects [2]
  entorhinal cortex (EC) activity during memory judgments: increases EC activity
aMCI subjects [2]; p=0.037
  DG/CA3 activity during lure stimuli correctly identified as "similar": reduces DG/CA3 hyper-activity
aMCI subjects [3]
  performance in Benton Visual Retention Test: fail to rescue performance
  performance in Buschke Selective Reminding Test—Delayed Recall: fail to rescue performance
  performance in Verbal Paired Associates Test—Delayed Recall: fail to rescue performance
  performance in Verbal Paired Associates Test—Recognition: fail to rescue performance
[4]; after oral administration
  absorption: rapidly and almost completely absorbed
[4]; expected in elderly due to decreased renal function
  plasma half-life: 9 to 10 h
[4]; following oral administration
  time of peak plasma concentrations: about 1 hour
[4]; in vivo
  plasma half-life: approximately 7±1 hour
[4]; multiple twice-daily dosing
  time to steady state: 2 days
[4]; oral
  bioavailability, effect of food: not affected by food
aged-impaired (AI) rats; AI rats, given acutely
  effective doses of levetiracetam used in the animal model: 5 to 10 mg/kg
aged-impaired (AI) rats; levetiracetam 2.5 mg/kg/day individually, in the absence of donepezil
  memory performance in AI rats: does not significantly improve memory performance
aged-impaired (AI) rats; levetiracetam 5 mg/kg/day i.p., one-hour delay RAM, AI rats n=10, vehicle control 2.00±0.42
  average no. of errors ± standard error of the mean (SEM), retention test: 0.75±0.32
aged-impaired (AI) rats; levetiracetam 5 mg/kg/day, one-hour delay RAM, t(9)=2.18, p=0.057
  memory performance relative to vehicle control treatment: significantly improves memory performance
aged-impaired (AI) rats; levetiracetam 10 mg/kg/day i.p., one-hour delay RAM, AI rats n=10, vehicle control 2.00±0.42
  average no. of errors ± SEM, retention test: 0.80±0.27
aged-impaired (AI) rats; levetiracetam 10 mg/kg/day, one-hour delay RAM, t(9)=2.37, p=0.042
  memory performance relative to vehicle control treatment: significantly improves memory performance
aged-impaired (AI) rats; levetiracetam 20 mg/kg
  performance of AI rats in the radial maze task: fails to improve the performance
aMCI subjects [5]
  performance in the explicit 3-alternative forced choice task: improves significantly

## COc1cc2c(cc1OC)C(=O)C(CC1CCN(Cc3ccccc3)CC1)C2 (stereo not shown) [donepezil, 2,3-dihydro-5,6-dimethoxy-2-((1-(phenylmethyl)-4-piperidinyl)methyl)-1H-inden-1-one]
aged-impaired (AI) rats; donepezil 1 mg/kg/day alone, two-hour delay RAM, t(7)=0, p=1.00
  memory performance relative to vehicle control treatment: does not significantly improve memory performance
aged-impaired (AI) rats; donepezil 1 mg/kg/day i.p., two-hour delay RAM, AI rats n=8, vehicle control 2.88±0.67
  average no. of errors ± standard error of the mean (SEM), retention test: 2.88±0.46
aged-impaired (AI) rats; donepezil 2 mg/kg/day alone, two-hour delay RAM, t(7)=0.91, p=0.930
  memory performance relative to vehicle control treatment: does not significantly improve memory performance
aged-impaired (AI) rats; donepezil 2 mg/kg/day i.p., two-hour delay RAM, AI rats n=8, vehicle control 2.88±0.67
  average no. of errors ± SEM, retention test: 2.81±0.43
